Assay results as given in patent US6352727B1, “Bactericides” (Oji Paper Co., Ltd., priority 1998, dated 2002).

Key:
Assay type in all cases: cell-based
Salmonella enteritidis [1] = assay: Test of bactericidal power of bactericides after treating beef (block); conditions: 5 min
Protocol: (§1) 100 ml of each of bactericides shown in Table 25 was charged into a vessel. 21 g of beef (block) was immersed in the bactericide, and allowed to stand at room temperature. After 24 hours, the beef was removed, and general bacterium (bacterium liberated from the beef) present in the bactericide were removed using a sterilized filter. 30 μl of bacteria suspension of Staphylococcus aureus or Salmonella enteritidis was added to 2 ml of the bactericide after used for the treatment of the beef. After five minutes, the number of bacterium in the bactericide was counted. As for 0.01% sodium hypochlorite, a similar test was conducted, and the results were compared.

Staphylococcus aureus [2] = assay: as above; conditions: 5 min
Protocol: as §1

[3] = test system: general bacterium on the surface of beef; assay: Number of bacterium on the surface of beef treated with bactericide; conditions: 5 minutes immersion, preserved at 4° C.
Protocol: 50 ml of each of bactericides was charged in a vessel, and then 15 g of beef (block) was immersed in the bactericide, and allowed to stand at room temperature (surface sterilization). After 5 minutes, the bactericide was removed, and only the beef was preserved in the vessel at 4° C. After certain period ((1) after one day, (2) after three days, (3) after six days), 25 ml of physiological saline was added to the vessel containing the beef, and shaked. The number of the bacterium cells liberated from the beef into the physiological saline was counted. It was confirmed according to preliminary experiments that the number of the bacterium cells per one gram of the beef existing on the surface of the beef before sterilization treatment was 10 or less. Sterilized water and sodium hypochlorite were also examined.

[4] = test system: Staphylococcus aureus IF012732; assay: Test of bactericidal power of bactericides mixed with meat (beef) extract
Protocol: (§2) It was evaluated whether bactericidal power was lowered when the bactericides shown in Table 20 were mixed with beef extract (Wako Junyaku) according to the following method. For comparison, sodium hypochlorite was also evaluated. Strains used herein were Staphylococcus aureus IF012732 and Salmonella enteritidis IF003313.
(§3) One ml of each of bactericides shown in Table 20 and one ml of 5% beef extract (dissolved in sterilized water) were mixed at a ratio of one to one, and allowed to stand at a room temperature. After 10 minutes, 10 μl of bacteria suspension previously prepared was added to each of the bactericides and the mixture, and allowed to stand after stirred. Change of number of bacteria in the mixture solution was determined (one minute, five minutes and 10 minutes after addition of bacteria). According to previous experiments, it was confirmed that general viable count was 10 or less per one ml of 5% beef extract. As shown in Table 21 and Table 22, when 0.02% of sodium hypochlorite was mixed with a beef extract, bactericidal power thereof was lowered.
The bactericides shown in Table 23 were examined for bactericidal power in a similar manner to that of Test Example 7.

[5] = test system: Salmonella enteritidis IF003313; assay: as above
Protocol: as §2, §3

[6] = test system: Trichophyton mentagrphytes; assay: Test of activity against Trichophyton mentagrphytes (paper disk, block circle); conditions: 8 mm paper disk with 25 μl, dried 24 hours; cultured at 28° C. for five days
Protocol: A paper disk having a diameter of 8 mm that was previously subjected to dry heat sterilization, was impregnated with 25 μl of each of fungicides shown in Table 8 and allowed to stand for 24 hours to be dried. The paper disk was put on agar medium on which spore suspension of Trichophyton […] previously prepared was spread, and cultured at 28° C. for five days. […] No block circle was formed when a fungicide containing only chitosan (Comparative Example 4) was used.

Salmonella enteritidis [7] = assay: Test of persistency of bactericidal power on stainless steel
Protocol: (§4) Each of bactericide shown in Table 8 was sprayed on a sterilized stainless steel plate (15 μl/cm^2), and allowed to stand for seven days in a sterilized room to be dried. Each of the bacteria suspension previously cultured in a similar manner to that described above was diluted with physiological saline. Then, 10 μl of the diluted suspension was spread on the stainless steel. After allowed to stand for 10 minutes, bacterium on the stainless steel were wiped with absorbent cotton, and liberated into physiological saline. Then, visible count was counted. For comparison, 70% ethanol was used as a conventional bactericide. Strong bactericidal power of each bactericide of examples containing both eucalyptus extract and chitosan was maintained, even after elapse of seven days, on the stainless steel on which it was spread. The bactericidal power was stronger than that of bactericides containing only eucalyptus extract (Comparative Examples 1 to 3) or a bactericide containing only chitosan (Comparative Example 4).
(§5) Persistency of bactericidal power of the bactericides shown in Table 16 was evaluated in a similar manner to that of Test Example 3 (allowed to stand for one month). After elapse of one month from spraying of the bactericide, bactericidal power of the bactericide containing glycerol fatty acid ester in addition to eucalyptus extract and chitosan (Example 4) was stronger than that of bactericides containing no glycerol fatty acid ester (Comparative Example 5).

Staphylococcus aureus [8] = assay: as above
Protocol: as §4, §5

Escherichia coli = assay: as above
Protocol: as §4, §5

Bacillus subtilis = assay: as above
Protocol: as §4, §5

MRSA = assay: as above
Protocol: as §4, §5

[9] = treatment of beef done (24 hours)
[10] = mixing treatment of beef extract and bactericide (10 min) done, 1 min
[11] = mixing treatment of beef extract and bactericide (10 min) done, 5 min
[12] = mixing treatment of beef extract and bactericide (10 min) done, 10 min
[13] = mixing treatment with beef extract none, 1 min
[14] = mixing treatment with beef extract none, 5 min
[15] = mixing treatment with beef extract none, 10 min

SMILES: OCl [0.01% Sodium hypochlorite, sodium hypochlorite]
- Viable count (Salmonella enteritidis [1]; [9]): 1.5 × 10^5 Number/ml
- Viable count (Salmonella enteritidis [1]; treatment of beef none): <1000 Number/ml
- Viable count (Staphylococcus aureus [2]; [9]): 1.8 × 10^5 Number/ml
- Viable count (Staphylococcus aureus [2]; treatment of beef none): <1000 Number/ml
- Number of general bacterium ([3]; After 3 days): 1.4 × 10^5 Number/g
- Number of general bacterium ([3]; After 6 days): 3.4 × 10^7 Number/g
- Number of general bacterium ([3]; After one day): 6.7 × 10^2 Number/g

SMILES: [Na+].[O-]Cl [0.02% Sodium hypochloryte, sodium hypochlorite]
- Viable count [4, 10]: 6.5 × 10^6 Number/ml
- Viable count [4, 11]: 6.5 × 10^6 Number/ml
- Viable count [4, 12]: 6.4 × 10^6 Number/ml
- Viable count [4, 13]: <200 Number/ml
- Viable count [4, 14]: <200 Number/ml
- Viable count [4, 15]: <200 Number/ml
- Viable count [5, 10]: 4.5 × 10^5 Number/ml
- Viable count [5, 11]: 4.3 × 10^5 Number/ml
- Viable count [5, 12]: 4.3 × 10^5 Number/ml
- Viable count [5, 13]: <200 Number/ml
- Viable count [5, 14]: <200 Number/ml
- Viable count [5, 15]: <200 Number/ml

SMILES: CCO [70% Ethanol, Ethanol]
- Diameter of block circle [6]: None
- Viable count (After 7 days) (Salmonella enteritidis [7]): 4.5 × 10^6 Number/100 cm^2
- Viable count (After 7 days) (Staphylococcus aureus [8]): 3.5 × 10^6 Number/100 cm^2
- Viable count (After 7 days) (Escherichia coli): 2.2 × 10^6 Number/100 cm^2
- Viable count (After 7 days) (Bacillus subtilis): 3.0 × 10^6 Number/100 cm^2
- Viable count (After 7 days) (MRSA): 1.2 × 10^6 Number/100 cm^2
